According to patent EP3714904B1, “IMINODIACETIC ACID SUBSTITUTED CYCLODEXTRINS AS POTENTIATORS OF BETA-LACTAM ANTIBIOTICS” (NATIONAL CENTER FOR SCIENTIFIC RESEARCH "DEMOKRITOS" (NCSRD), priority 2019, dated 2020):

System: Klebsiella pneumoniae
Experiment: MIC of β-lactams alone or with 50 µM IDACYD against clinical isolates
Type: cell-based
Procedure: Further the in-vitro inhibitory activity of IDACYDs was tested against highly resistant pathogens. […] Table 2: Collection of clinical isolates used for in-vitro evaluation

[1] = isolate LA-34 (VIM, CMY), first entry of Table 3
[2] = isolate LA-34 (VIM, CMY), second entry of Table 3
[3] = isolate LAR-26I/15 (NDM, VIM, CTXM)
[4] = isolate LAR-37II/15 (NDM, VIM, CTXM)
[5] = isolate LAR-38I/15 (VIM, NDM, CTXM)
[6] = isolate LAR-7547 (NDM, VIM, CTXM)
[7] = isolate TZAN-59 (β-lactamase: None)

CO[C@@H]1[C@@H](OC)[C@H]2O[C@H]3[C@H](OC)[C@@H](OC)[C@@H](O[C@H]4[C@H](OC)[C@@H](OC)[C@@H](O[C@H]5[C@H](OC)[C@@H](OC)[C@@H](O[C@H]6[C@H](OC)[C@@H](OC)[C@@H](O[C@H]7[C@H](OC)[C@@H](OC)[C@@H](O[C@H]8[C@H](OC)[C@@H](OC)[C@@H](O[C@@H]1[C@@H](CN(CC(=O)O)CC(=O)O)O2)O[C@@H]8CN(CC(=O)O)CC(=O)O)O[C@@H]7CN(CC(=O)O)CC(=O)O)O[C@@H]6CN(CC(=O)O)CC(=O)O)O[C@@H]5CN(CC(=O)O)CC(=O)O)O[C@@H]4CN(CC(=O)O)CC(=O)O)O[C@@H]3CN(CC(=O)O)CC(=O)O [β-IDACYD]
4 µg/mL: Meropenem /50µM β-IDACYD MIC (isolate EY-20S (CMY, SHV)) | Imipenem /50µM β-IDACYD MIC [6]
0.5 µg/mL: Imipenem /50µM β-IDACYD MIC (isolate IT-17829 (CTXM, SHV)) | Meropenem /50µM β-IDACYD MIC (isolate LA-38 (NDM)) | Meropenem /50µM β-IDACYD MIC [3] | Imipenem /50µM β-IDACYD MIC [7] | Meropenem /50µM β-IDACYD MIC [7]
<0.5 µg/mL: Imipenem /50µM β-IDACYD MIC [1]
1 µg/mL: Meropenem /50µM β-IDACYD MIC (isolate SEC-4 (VIM))
16 µg/mL: Imipenem /50µM β-IDACYD MIC (isolate L078/11 (KPC)) | Imipenem /50µM β-IDACYD MIC (isolate LAR-40II/15 (KPC)) | Meropenem /50µM β-IDACYD MIC [6]
0.25 µg/mL: Meropenem /50µM β-IDACYD MIC [1] | Imipenem /50µM β-IDACYD MIC [2] | Meropenem /50µM β-IDACYD MIC [2] | Meropenem /50µM β-IDACYD MIC (isolate LA-82/16 (VIM, SHV))
32 µg/mL: Meropenem /50µM β-IDACYD MIC (isolate IT-17829 (CTXM, SHV)) | Ceftazidime/ 50µM β-IDACYD MIC (isolate LA-28 (NDM, CTXM)) | Ceftazidime/ 50µM β-IDACYD MIC (isolate LA-82/16 (VIM, SHV)) | Ceftazidime/ 50µM β-IDACYD MIC (isolate LA-109/16 (VIM, CTXM)) | Meropenem /50µM β-IDACYD MIC (isolate LA-470/17 (NDM)) | Ceftazidime/ 50µM β-IDACYD MIC (isolate LAR-4011/15)
<0.25 µg/mL: Meropenem /50µM β-IDACYD MIC (isolate LA-26 (NDM)) | Meropenem /50µM β-IDACYD MIC (isolate LA-27 (NDM, CTXM)) | Meropenem /50µM β-IDACYD MIC (isolate LA-28 (NDM, CTXM)) | Meropenem /50µM β-IDACYD MIC (isolate LA-109/16 (VIM, CTXM)) | Meropenem /50µM β-IDACYD MIC (isolate LA-419/16 (NDM,CTXM)) | Meropenem /50µM β-IDACYD MIC [4] | Meropenem /50µM β-IDACYD MIC [5] | Meropenem /50µM β-IDACYD MIC (isolate LAR-2873 (VIM-12)) | Ceftazidime/ 50µM β-IDACYD MIC (isolate UoA 12/227 (VIM)) | Meropenem /50µM β-IDACYD MIC (isolate UoA 12/227 (VIM)) | Ceftazidime/ 50µM β-IDACYD MIC (isolate UoA 1995 (VIM)) | Meropenem /50µM β-IDACYD MIC (isolate UoA 1995 (VIM))
0.125 µg/mL: Imipenem /50µM β-IDACYD MIC [3]
2 µg/mL: Imipenem /50µM β-IDACYD MIC (isolate EY-20S (CMY, SHV)) | Imipenem /50µM β-IDACYD MIC (isolate SEC-2 (VIM)) | Meropenem /50µM β-IDACYD MIC (isolate SEC-2 (VIM)) | Imipenem /50µM β-IDACYD MIC (isolate SEC-4 (VIM))
64 µg/mL: Meropenem /50µM β-IDACYD MIC (isolate L078/11 (KPC)) | Meropenem /50µM β-IDACYD MIC (isolate LAR-40II/15 (KPC))
<0.125 µg/mL: Imipenem /50µM β-IDACYD MIC (isolate LA-26 (NDM)) | Imipenem /50µM β-IDACYD MIC (isolate LA-27 (NDM, CTXM)) | Imipenem /50µM β-IDACYD MIC (isolate LA-28 (NDM, CTXM)) | Imipenem /50µM β-IDACYD MIC (isolate LA-38 (NDM)) | Imipenem /50µM β-IDACYD MIC (isolate LA-82/16 (VIM, SHV)) | Imipenem /50µM β-IDACYD MIC (isolate LA-109/16 (VIM, CTXM)) | Imipenem /50µM β-IDACYD MIC (isolate LA-419/16 (NDM,CTXM)) | Imipenem /50µM β-IDACYD MIC [4] | Imipenem /50µM β-IDACYD MIC [5] | Imipenem /50µM β-IDACYD MIC (isolate LAR-2873 (VIM-12)) | Imipenem /50µM β-IDACYD MIC (isolate UoA 12/227 (VIM)) | Imipenem /50µM β-IDACYD MIC (isolate UoA 1995 (VIM))
8 µg/mL: Imipenem /50µM β-IDACYD MIC (isolate LA-470/17 (NDM))
